Results from publication PMC9851200, “Multiparameter phenotypic screening for endogenous TFEB and TFE3 translocation identifies novel chemical series modulating lysosome function” (Autophagy, 2022).

Assays:
Assay type in all cases: binding
[1] = molecular target: T1, kinases (KINOMEscan panel) (Homo sapiens, UniProt P42680); conditions: kinase TEC; NEW KINOMEscan
T1 sequence (P42680 1-631): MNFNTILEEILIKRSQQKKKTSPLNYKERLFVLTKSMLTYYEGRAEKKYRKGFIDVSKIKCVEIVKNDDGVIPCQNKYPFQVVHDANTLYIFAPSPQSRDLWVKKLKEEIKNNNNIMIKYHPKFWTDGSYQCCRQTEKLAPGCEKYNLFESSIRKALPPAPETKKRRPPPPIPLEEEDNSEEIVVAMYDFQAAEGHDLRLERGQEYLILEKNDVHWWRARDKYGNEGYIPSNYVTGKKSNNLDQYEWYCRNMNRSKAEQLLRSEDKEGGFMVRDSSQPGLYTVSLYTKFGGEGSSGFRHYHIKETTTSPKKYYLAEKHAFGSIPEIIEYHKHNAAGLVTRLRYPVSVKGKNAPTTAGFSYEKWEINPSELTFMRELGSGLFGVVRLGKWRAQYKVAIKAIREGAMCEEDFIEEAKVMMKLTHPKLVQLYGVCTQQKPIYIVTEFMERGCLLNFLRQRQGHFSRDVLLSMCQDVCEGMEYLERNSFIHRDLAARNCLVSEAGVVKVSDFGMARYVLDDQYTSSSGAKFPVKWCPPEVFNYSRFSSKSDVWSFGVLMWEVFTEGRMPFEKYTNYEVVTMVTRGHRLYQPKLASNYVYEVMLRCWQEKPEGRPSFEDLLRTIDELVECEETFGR

[2] = molecular target: T2, kinases (KINOMEscan panel) (Homo sapiens, UniProt P20794); conditions: NEW KINOMEscan
T2 sequence (P20794 1-623): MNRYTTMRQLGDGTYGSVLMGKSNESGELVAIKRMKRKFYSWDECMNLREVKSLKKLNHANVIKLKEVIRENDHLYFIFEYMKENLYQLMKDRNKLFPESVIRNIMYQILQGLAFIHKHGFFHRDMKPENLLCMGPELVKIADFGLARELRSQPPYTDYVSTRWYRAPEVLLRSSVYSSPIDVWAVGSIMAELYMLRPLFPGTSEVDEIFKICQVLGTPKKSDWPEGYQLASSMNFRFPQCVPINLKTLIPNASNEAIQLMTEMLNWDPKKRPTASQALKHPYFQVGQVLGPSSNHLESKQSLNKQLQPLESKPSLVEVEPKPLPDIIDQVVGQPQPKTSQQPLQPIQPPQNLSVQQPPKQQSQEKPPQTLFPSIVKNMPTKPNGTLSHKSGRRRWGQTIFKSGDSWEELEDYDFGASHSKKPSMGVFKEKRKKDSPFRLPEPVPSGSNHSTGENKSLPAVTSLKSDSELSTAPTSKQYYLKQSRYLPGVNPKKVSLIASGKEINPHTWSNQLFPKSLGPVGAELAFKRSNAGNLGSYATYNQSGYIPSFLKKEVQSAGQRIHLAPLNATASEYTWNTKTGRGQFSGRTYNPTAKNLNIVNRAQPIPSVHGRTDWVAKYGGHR

[3] = molecular target: T3, kinases (KINOMEscan panel) (Homo sapiens, UniProt O43318); conditions: NEW KINOMEscan
T3 sequence (O43318 1-606): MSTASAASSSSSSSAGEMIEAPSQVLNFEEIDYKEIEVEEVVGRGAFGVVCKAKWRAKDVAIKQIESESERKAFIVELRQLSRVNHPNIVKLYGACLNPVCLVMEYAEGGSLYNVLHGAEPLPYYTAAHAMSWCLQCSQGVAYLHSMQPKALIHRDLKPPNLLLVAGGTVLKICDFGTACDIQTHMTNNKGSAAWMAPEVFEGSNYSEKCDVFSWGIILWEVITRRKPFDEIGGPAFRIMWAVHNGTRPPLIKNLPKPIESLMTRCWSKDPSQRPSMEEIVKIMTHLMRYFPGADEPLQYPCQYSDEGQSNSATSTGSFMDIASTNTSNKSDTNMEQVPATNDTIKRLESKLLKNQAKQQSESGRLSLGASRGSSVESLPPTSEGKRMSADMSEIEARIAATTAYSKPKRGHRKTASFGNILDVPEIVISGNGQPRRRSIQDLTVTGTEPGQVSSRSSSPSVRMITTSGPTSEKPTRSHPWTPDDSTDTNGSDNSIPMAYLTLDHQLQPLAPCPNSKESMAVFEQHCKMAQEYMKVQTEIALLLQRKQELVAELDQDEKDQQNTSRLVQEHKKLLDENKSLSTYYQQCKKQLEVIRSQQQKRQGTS

[4] = molecular target: kinases (KINOMEscan panel) (Homo sapiens, UniProt P24941); conditions: CDK2; NEW KINOMEscan
[5] = molecular target: T4, kinases (KINOMEscan panel) (Homo sapiens, UniProt Q9Y2U5); conditions: MAP3K2; NEW KINOMEscan
T4 sequence (Q9Y2U5 1-619): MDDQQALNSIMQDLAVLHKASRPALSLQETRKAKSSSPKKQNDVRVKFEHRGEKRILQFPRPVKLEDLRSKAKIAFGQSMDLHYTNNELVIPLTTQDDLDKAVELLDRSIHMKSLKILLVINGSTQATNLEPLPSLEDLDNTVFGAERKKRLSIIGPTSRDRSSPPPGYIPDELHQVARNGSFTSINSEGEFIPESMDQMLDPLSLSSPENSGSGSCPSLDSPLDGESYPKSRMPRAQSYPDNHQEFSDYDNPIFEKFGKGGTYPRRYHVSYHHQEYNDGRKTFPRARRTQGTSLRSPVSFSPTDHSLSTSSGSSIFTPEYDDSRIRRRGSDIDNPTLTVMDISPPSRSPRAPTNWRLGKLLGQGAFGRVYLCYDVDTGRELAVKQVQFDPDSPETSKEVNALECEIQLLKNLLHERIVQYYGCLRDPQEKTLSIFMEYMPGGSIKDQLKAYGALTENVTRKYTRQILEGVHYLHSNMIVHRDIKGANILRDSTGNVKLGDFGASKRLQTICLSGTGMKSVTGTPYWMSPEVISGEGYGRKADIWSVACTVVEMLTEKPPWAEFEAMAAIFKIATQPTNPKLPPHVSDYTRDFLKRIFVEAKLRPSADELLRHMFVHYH

[6] = molecular target: kinases (KINOMEscan panel) (Homo sapiens, UniProt Q99558); conditions: kinase MAP3K14; NEW KINOMEscan
Sequence of kinases (KINOMEscan panel) (Homo sapiens, UniProt Q99558) (Q99558 whole entry): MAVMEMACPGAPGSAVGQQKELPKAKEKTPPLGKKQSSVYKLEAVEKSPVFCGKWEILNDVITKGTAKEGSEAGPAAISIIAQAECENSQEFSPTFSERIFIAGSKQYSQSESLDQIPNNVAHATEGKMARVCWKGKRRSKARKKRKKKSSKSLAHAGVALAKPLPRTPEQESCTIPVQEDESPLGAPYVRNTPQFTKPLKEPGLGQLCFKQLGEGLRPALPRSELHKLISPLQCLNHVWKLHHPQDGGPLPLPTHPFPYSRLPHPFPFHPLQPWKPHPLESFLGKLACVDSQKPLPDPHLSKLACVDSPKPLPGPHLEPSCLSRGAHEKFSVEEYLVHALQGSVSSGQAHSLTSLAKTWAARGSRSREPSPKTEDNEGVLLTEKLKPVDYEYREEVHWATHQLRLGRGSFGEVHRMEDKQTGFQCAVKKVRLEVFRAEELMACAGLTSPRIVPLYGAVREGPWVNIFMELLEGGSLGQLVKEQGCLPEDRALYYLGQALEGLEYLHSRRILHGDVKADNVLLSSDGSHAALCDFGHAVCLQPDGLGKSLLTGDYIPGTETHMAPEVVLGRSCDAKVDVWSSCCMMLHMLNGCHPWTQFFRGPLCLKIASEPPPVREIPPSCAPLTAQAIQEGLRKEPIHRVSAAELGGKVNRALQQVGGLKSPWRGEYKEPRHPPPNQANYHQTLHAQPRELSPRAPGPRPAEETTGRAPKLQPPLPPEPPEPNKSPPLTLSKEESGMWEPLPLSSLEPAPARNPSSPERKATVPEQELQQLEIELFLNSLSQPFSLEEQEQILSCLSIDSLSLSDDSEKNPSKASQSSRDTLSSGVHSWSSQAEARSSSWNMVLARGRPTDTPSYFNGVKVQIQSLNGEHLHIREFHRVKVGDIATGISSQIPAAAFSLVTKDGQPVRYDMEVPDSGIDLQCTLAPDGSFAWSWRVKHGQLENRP

[7] = molecular target: kinases (KINOMEscan panel) (Homo sapiens, UniProt P54756); conditions: kinase EPHA5; NEW KINOMEscan
Sequence of kinases (KINOMEscan panel) (Homo sapiens, UniProt P54756) (P54756 25-1037): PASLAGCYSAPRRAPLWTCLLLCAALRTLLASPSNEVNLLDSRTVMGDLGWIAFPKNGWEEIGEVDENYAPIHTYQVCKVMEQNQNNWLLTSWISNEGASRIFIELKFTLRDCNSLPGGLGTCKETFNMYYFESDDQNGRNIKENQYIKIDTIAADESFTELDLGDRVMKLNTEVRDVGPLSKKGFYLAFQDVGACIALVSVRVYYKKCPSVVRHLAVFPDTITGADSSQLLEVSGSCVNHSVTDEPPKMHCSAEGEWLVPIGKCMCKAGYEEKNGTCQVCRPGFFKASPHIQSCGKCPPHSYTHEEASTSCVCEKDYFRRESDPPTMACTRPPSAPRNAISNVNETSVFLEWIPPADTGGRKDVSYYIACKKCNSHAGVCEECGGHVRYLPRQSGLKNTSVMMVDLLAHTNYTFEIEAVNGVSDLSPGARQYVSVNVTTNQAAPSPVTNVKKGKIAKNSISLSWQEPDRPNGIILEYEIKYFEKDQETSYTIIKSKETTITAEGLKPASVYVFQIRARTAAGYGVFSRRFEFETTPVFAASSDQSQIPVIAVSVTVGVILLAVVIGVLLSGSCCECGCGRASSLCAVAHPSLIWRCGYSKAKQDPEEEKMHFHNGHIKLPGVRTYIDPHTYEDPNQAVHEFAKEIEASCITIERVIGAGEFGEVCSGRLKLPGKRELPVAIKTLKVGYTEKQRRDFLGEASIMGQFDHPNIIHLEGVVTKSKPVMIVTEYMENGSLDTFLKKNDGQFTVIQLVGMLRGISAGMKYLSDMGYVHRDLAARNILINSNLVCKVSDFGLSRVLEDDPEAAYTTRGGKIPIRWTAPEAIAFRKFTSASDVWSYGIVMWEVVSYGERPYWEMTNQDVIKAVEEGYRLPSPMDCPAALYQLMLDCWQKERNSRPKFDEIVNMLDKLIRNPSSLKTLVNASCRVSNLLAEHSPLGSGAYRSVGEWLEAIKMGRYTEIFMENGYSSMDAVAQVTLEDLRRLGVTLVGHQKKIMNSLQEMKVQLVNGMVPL

[8] = molecular target: kinases (KINOMEscan panel) (Homo sapiens, UniProt Q5S007); conditions: NEW KINOMEscan
Sequence of kinases (KINOMEscan panel) (Homo sapiens, UniProt Q5S007) (Q5S007 whole entry): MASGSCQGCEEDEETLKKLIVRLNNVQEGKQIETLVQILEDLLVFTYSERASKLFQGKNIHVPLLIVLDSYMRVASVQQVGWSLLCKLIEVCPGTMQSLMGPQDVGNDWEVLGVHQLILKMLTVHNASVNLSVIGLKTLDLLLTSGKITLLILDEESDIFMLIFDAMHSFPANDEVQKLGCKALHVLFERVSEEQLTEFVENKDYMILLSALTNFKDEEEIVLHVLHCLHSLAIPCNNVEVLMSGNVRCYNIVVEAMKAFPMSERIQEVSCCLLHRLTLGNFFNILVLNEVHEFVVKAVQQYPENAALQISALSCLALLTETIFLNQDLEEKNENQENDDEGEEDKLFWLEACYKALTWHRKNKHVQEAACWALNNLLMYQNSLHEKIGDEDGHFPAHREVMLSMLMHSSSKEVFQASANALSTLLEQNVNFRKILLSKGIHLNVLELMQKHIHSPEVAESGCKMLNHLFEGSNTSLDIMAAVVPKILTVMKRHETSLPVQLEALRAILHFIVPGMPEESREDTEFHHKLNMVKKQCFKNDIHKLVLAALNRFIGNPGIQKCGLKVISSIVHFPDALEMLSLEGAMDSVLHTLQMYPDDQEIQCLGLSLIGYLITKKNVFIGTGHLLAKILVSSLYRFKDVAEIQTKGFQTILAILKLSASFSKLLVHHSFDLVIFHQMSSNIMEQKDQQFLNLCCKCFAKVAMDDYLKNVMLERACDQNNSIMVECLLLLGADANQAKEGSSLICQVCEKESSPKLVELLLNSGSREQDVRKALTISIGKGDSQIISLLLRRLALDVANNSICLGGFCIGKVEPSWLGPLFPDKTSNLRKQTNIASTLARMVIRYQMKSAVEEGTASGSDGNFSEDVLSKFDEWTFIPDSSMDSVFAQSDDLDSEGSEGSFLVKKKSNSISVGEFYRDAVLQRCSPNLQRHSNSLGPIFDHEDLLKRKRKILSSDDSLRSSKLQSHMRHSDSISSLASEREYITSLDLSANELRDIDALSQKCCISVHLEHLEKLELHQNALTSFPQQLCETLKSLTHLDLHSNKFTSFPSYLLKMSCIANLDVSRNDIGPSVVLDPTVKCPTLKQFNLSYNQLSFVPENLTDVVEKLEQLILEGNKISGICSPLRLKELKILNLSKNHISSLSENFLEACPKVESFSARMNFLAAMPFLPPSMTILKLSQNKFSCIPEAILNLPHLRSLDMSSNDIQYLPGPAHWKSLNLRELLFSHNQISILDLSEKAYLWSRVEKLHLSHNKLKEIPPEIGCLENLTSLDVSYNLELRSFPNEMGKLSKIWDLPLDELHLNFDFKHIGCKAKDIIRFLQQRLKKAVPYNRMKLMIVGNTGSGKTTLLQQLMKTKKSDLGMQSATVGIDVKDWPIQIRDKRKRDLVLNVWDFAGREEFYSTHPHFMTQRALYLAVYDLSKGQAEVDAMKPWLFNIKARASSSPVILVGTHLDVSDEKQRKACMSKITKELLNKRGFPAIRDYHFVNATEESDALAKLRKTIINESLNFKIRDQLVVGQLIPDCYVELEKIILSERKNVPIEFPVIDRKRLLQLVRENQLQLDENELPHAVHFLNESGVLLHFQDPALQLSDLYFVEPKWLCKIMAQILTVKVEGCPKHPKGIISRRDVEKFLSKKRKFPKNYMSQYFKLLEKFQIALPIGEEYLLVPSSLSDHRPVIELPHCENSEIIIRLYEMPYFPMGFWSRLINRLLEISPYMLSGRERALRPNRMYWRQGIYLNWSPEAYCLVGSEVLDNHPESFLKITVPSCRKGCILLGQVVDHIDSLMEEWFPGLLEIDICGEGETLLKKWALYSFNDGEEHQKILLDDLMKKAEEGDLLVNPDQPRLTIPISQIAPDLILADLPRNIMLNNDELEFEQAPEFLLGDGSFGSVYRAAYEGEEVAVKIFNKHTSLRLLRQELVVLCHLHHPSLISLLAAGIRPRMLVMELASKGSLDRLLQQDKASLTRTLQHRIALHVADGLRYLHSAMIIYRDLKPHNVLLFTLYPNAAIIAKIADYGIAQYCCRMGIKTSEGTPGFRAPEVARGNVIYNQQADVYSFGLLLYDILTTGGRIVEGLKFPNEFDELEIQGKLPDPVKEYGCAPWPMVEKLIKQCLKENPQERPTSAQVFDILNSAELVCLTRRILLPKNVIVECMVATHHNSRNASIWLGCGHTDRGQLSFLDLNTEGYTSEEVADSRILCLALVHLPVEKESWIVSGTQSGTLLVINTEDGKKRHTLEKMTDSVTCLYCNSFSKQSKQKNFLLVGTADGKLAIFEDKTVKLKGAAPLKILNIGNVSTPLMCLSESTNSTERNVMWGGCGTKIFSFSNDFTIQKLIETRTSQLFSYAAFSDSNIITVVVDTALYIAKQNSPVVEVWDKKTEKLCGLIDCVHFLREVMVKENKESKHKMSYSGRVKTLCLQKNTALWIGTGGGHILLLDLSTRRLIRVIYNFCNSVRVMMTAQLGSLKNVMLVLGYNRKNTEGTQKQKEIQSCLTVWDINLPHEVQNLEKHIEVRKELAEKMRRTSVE

[9] = molecular target: kinases (KINOMEscan panel) (Homo sapiens, UniProt O75914); conditions: NEW KINOMEscan
Sequence of kinases (KINOMEscan panel) (Homo sapiens, UniProt O75914) (O75914 whole entry): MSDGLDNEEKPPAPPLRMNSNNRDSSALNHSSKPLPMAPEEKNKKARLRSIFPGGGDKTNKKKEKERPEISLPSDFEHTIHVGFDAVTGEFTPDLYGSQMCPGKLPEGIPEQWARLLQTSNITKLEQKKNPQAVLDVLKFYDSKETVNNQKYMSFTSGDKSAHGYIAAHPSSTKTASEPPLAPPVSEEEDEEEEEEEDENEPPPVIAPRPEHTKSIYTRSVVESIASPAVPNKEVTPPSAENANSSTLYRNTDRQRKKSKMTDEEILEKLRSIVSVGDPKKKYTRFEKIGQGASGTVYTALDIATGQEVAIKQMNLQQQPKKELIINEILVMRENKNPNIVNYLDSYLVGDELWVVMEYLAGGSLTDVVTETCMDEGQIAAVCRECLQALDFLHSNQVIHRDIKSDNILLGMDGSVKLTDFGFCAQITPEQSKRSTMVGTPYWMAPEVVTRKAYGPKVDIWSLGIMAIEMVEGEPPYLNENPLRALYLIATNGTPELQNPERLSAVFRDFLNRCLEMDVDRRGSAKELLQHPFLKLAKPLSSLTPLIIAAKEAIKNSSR

| Compound | KINOMEscan TEC [1] | KINOMEscan MAK or ALPK3 [2] | KINOMEscan MAP3K7 [3] | KINOMEscan CDK2 [4] | KINOMEscan MAP3K2 [5] | KINOMEscan MAP3K14 [6] | KINOMEscan EPHA5 [7] | KINOMEscan LRRK2 [8] | KINOMEscan PAK3 [9] |
| --- | --- | --- | --- | --- | --- | --- | --- | --- | --- |
| Cc1cccc(-c2nc(Nc3ccc4nn(C)cc4c3)c3ccccc3n2)n1 [NK167] | 0 | 0 | 0 | 0 | 0 | 0 | 0 | 21 | 12 |
| Cc1cccc(-c2nc(N(C)c3ccc4ncsc4c3)c3ccccc3n2)n1 [NK-161] | 0 | 5 | 10 | 0 | 0 | 2 | 9 | 27 | 17 |
